Measured values from paper PMC6930223 (Scientific Reports, 2019).

Tested on: HEK293-hERG1a/1b cells
Assay: Cell proliferation assay (CellTiter 96 AQueous One), 72 h
Type: cell-based, human
Procedure: Trypan blue exclusion test was carried out to determine the effect of transfection on HEK293-hERG1a/1b cell viability. Briefly, cell suspension was mixed with 0.4% (v/v) trypan blue solution in a ratio of 1:1 and the viability of the cells were analyzed using Countess® II FL automated cell counter (Invitrogen, USA). For cell proliferation assay, cells were first seeded at a density of 5000 cells/well onto two 96-well plates (T0 and T1) and were incubated at 37 °C for 24 h in a humidified incubator supplemented with 5% (v/v) CO2. Subsequently, cells in T0 plate were subjected to cell proliferation assay as described previously. Meanwhile, cells in T1 plate were cultured in reduced serum medium (0.5% v/v FBS) for 4 h and treated with various concentrations of mitragynine. After 72 h, cell proliferation was determined using CellTiter 96® AQueous One Solution Cell Proliferation Assay (Promega, USA) following manufacturer’s protocol. Cell proliferation results were expressed as percentage growth (PG)[65]. The response parameters GI50 (half maximal growth inhibitory concentration), TGI (total growth inhibition) and LC50 (half maximal lethal concentration) values were derived from a non-linear regression model (curvefit) based on dose response-inhibition curve and computed using GraphPad Prism® 5.01 (GraphPad Software, USA). The GI50, TGI and LC50 are interpolated values representing the concentrations at which the PG is +50, 0 and −50 respectively. Data are presented as mean PG for three independent experiments.

## mitragynine
  GI50: 30.2 µM
  LC50: 85.1 µM
  TGI: 57.68 µM
